Values joined by “and” are separate entries in the source; they are usually repeats but may differ in a detail not shown here. Equal entries are not always repeated.
Tested on: A498 complex spheroid viability
Assay: Anticancer human tumor A498 cell line growth inhibition;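 also: spheroids exposed to agents for seven days before readout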;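 as to viability, T/C: 100% = DMSO vehicle-treated spheroids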
Conditions: for viability, T/C: stronger effect = lower value
Method in brief: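 Drug combinations with the LSD1 inhibitor iadademstat tested on tumor cells co-cultured as spheroids with endothelial cells and mesenchymal stem cells. Concentrations descended in half-log increments from clinical Cmax or 10 microM.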

[1] = curve of first compound, second compound 0.1 µM
[2] = curve of first compound, second compound 0.316 µM
[3] = curve of first compound, second compound 1 µM
[4] = curve of first compound, second compound 3.16 µM
[5] = curve of first compound, second compound 10 µM
[6] = second compound 0.1 µM, first compound 0.0316 µM
[7] = second compound 0.1 µM, first compound 0.1 µM
[8] = second compound 0.1 µM, first compound 0.316 µM
[9] = second compound 0.1 µM, first compound 1 µM
[10] = second compound 0.316 µM, first compound 0.0316 µM
[11] = second compound 0.316 µM, first compound 0.1 µM
[12] = second compound 0.316 µM, first compound 0.316 µM
[13] = second compound 0.316 µM, first compound 1 µM
[14] = second compound 1 µM, first compound 0.0316 µM
[15] = second compound 1 µM, first compound 0.1 µM
[16] = second compound 1 µM, first compound 0.316 µM
[17] = second compound 1 µM, first compound 1 µM
[18] = second compound 3.16 µM, first compound 0.0316 µM
[19] = second compound 3.16 µM, first compound 0.1 µM
[20] = second compound 3.16 µM, first compound 0.316 µM
[21] = second compound 3.16 µM, first compound 1 µM
[22] = second compound 10 µM, first compound 0.0316 µM
[23] = second compound 10 µM, first compound 0.1 µM
[24] = second compound 10 µM, first compound 0.316 µM
[25] = second compound 10 µM, first compound 1 µM

Compound | IC50 [1] [nM] | IC50 [2] [nM] | IC50 [3] [nM] | IC50 [4] [nM] | IC50 [5] [nM] | viability, T/C [6] [%] | viability, T/C [7] [%] | viability, T/C [8] [%] | viability, T/C [9] [%] | viability, T/C [10] [%] | viability, T/C [11] [%] | viability, T/C [12] [%] | viability, T/C [13] [%] | viability, T/C [14] [%] | viability, T/C [15] [%] | viability, T/C [16] [%] | viability, T/C [17] [%] | viability, T/C [18] [%] | viability, T/C [19] [%] | viability, T/C [20] [%] | also measured
COc1ccc([C@@H](O)c2cc(-c3ncnc4cc(N5CCOCC5)ccc34)c(F)cc2Cl)nn1 |  |  |  |  |  |  |  |  |  |  |  |  |  |  |  |  |  |  |  |  | viability, T/C (compound 0.0316 µM): 84.8% and 74.3%; viability, T/C (compound 0.1 µM): 62.5% and 53.8%; viability, T/C (compound 0.316 µM): 33.1% and 28.8%; viability, T/C (compound 1 µM): 19.1% and 18.4%; viability, T/C (compound 3.16 µM): 10.7% and 9.71%; viability, T/C (compound 10 µM): 6.93% and 6.16%; IC50 (curve of compound): 164 nM and 115 nM
O=C(C=Cn1cnc(-c2cc(C(F)(F)F)cc(C(F)(F)F)c2)n1)NNc1cnccn1 + NC1CC1c1ccc(-c2cccc(O)c2)cc1 | 11.8 | 9.73 | 9.22 | 6.36 | 7.24 | 40.5 | 29.3 | 25.2 | 19.3 | 37.5 | 28.8 | 25.8 | 20.1 | 37.1 | 28.4 | 27.8 | 20.7 | 34.8 | 26.8 | 27 | viability, T/C (second compound 0.1 µM, first compound 0.00316 µM): 69.8%; viability, T/C (second compound 0.1 µM, first compound 0.01 µM): 50.3%; viability, T/C (second compound 0.316 µM, first compound 0.00316 µM): 72.2%; viability, T/C (second compound 0.316 µM, first compound 0.01 µM): 47.7%; viability, T/C (second compound 1 µM, first compound 0.00316 µM): 70.9%; viability, T/C (second compound 1 µM, first compound 0.01 µM): 46.9%; viability, T/C (second compound 3.16 µM, first compound 0.00316 µM): 61%; viability, T/C (second compound 3.16 µM, first compound 0.01 µM): 41.9%; viability, T/C [21]: 22.3%; viability, T/C (second compound 10 µM, first compound 0.00316 µM): 61.3%; viability, T/C (second compound 10 µM, first compound 0.01 µM): 43.8%; viability, T/C [22]: 36.5%; viability, T/C [23]: 31.8%; viability, T/C [24]: 24.1%; viability, T/C [25]: 21.6%
CC(C)c1c(-c2ccccc2)nc2c(C#N)c[nH]n2c1=O + NC1CCC(NC2CC2c2ccccc2)CC1 | > 10000 | > 10000 | > 10000 | > 10000 | > 10000 | 88.3 | 87.8 | 89.3 | 87.3 | 84 | 85.8 | 87 | 87.8 | 88.8 | 86.4 | 89.2 | 88.2 | 84 | 79.9 | 82.3 | viability, T/C (second compound 0.1 µM, first compound 3.16 µM): 91.3%; viability, T/C (second compound 0.1 µM, first compound 10 µM): 86.5%; viability, T/C (second compound 0.316 µM, first compound 3.16 µM): 82.7%; viability, T/C (second compound 0.316 µM, first compound 10 µM): 85%; viability, T/C (second compound 1 µM, first compound 3.16 µM): 86%; viability, T/C (second compound 1 µM, first compound 10 µM): 86.9%; viability, T/C [21]: 87.6%; viability, T/C (second compound 3.16 µM, first compound 3.16 µM): 83.8%; viability, T/C (second compound 3.16 µM, first compound 10 µM): 82.4%; viability, T/C [22]: 64%; viability, T/C [23]: 69.3%; viability, T/C [24]: 66.3%; viability, T/C [25]: 69.6%; viability, T/C (second compound 10 µM, first compound 3.16 µM): 66.4%; viability, T/C (second compound 10 µM, first compound 10 µM): 69.5%
